Values quoted from earlier work in paper PMC5383348 (Trends in cancer, 2017).
pIC50: −log10 of the molar value.

Experiments:
[1] = tested on: xenograft models for triple-negative breast cancer and multiple myeloma
[2] = tested on: recombinant human GLS; conditions: read-out: IC50 value against recombinant human GLS
[3] = tested on: cultured cancer cell lines for triple-negative breast cancer and multiple myeloma

O=C(Cc1cccc(OC(F)(F)F)c1)Nc1ccc(CCCCc2nnc(NC(=O)Cc3ccccn3)s2)nn1 [CB-839]
efficacy against xenograft models [1]: shown efficacy | pIC50 [2]: > 7.30 | efficacy against cultured cancer cell lines [3]: shown efficacy
